# Test results from patent publication US20210252032A1, “DRUGS FOR GRP78 CELL SURFACE TRANSLOCATION AND PAR-4 SECRETION” (University of Kentucky Research Foundation, priority 2020, published 2021).
# “Also recorded” adds a separate entry of the source.
# Columns and labels:
# [1] = tested on: LLC1-derived lung tumor nodules; conditions: CQ in conjunction with CZT, relative to CZT or CQ administered separately; cited from earlier work
# lung cancer cells [2] = conditions: previous studies (background); cited from earlier work
# [3] = tested on: normal lung fibroblast HEL cells; assay: GRP78 cell surface expression in normal HEL cells (FIG. 1); assay type: cell-based
# Excerpt: (§1) To maximize the apoptotic effect of secreted Par-4 on lung tumors, the second active agent is effective to elevate GRP78 on the surface of cancer cells and thereby complements the apoptotic action of secreted Par-4. […] Approximately 5% of patients with non-small cell lung cancer (NSCLC) have tumors that contain an inversion in chromosome 2 that juxtaposes the 5′ end of the echinoderm microtubule-associated protein-like 4 (EML4) gene with the 3′ end of the ALK gene. This juxtaposition results in the fusion oncogene called EML4-ALK. ALK+ tumors are highly sensitive to therapy with ALKtargeted inhibitors. […] On the other hand, phosphorylation of SRC at tyrosine 530 (Y530) by C-terminal SRC kinase (Csk) and Csk homologous kinase results in inactivation of SRC.
# [4] = tested on: p53-deficient KP7B lung tumor cells; assay: GRP78 cell surface expression in KP7B lung tumor cells (FIG. 1); assay type: cell-based
# Excerpt: as §1
# cancer cells = assay: Cell surface expression of GRP78 in cancer cells (FIG. 1 legend); assay type: cell-based
# epithelial BEAS2B cells = assay: GRP78 cell surface expression in normal BEAS2B cells (FIG. 1); assay type: cell-based
# Excerpt: as §1
# lung cancer cells [5] = assay: GRP78 cell surface translocation in lung cancer cells (FIG. 2); assay type: cell-based; conditions: nanomolar concentrations
# Excerpt: as §1
# [6] = tested on: tyrosine-protein kinase SRC; assay: SRC activation (FIG. 3); assay type: cell-based; conditions: lung cancer cells
# Excerpt: Dephosphorylation of Y530 by phosphatases results in autophosphorylation of SRC at Y419, leading to activation. SRC activation triggers a signaling cascade that prevents retrograde trafficking of proteins from the Golgi to the ER and promotes GRP78 translocation from the Golgi to the cell surface.
# normal cells = assay: Par-4 secretion from normal cells; assay type: cell-based; conditions: levels relative to those achieved previously with chloroquine
smiles,measurement,setting,value
"CCN(CC)CCCC(C)Nc1ccnc2cc(Cl)ccc12 (stereo not drawn) [CQ, chloroquine]",inhibition of LLC1-derived lung tumor nodules,[1],significantly greater inhibition
"C[C@@H](Oc1cc(-c2cnn(C3CCNCC3)c2)cnc1N)c1c(Cl)ccc(F)c1Cl [CZT, Crizotinib]",Par-4 receptor GRP78 levels on lung cancer cells,lung cancer cells [2],inducer
same,Par-4 receptor GRP78 on the cell surface,[3],not
same,Par-4 receptor GRP78 on the cell surface,[4],elevated
same,cell surface expression of GRP78 in cancer cells,cancer cells,induces
same,Par-4 receptor GRP78 on the cell surface,epithelial BEAS2B cells,not
COCCn1c2c([n+](Cc3cnccn3)c1C)C(=O)c1ccccc1C2=O [YM155],GRP78 cell surface translocation,lung cancer cells [5],induce cell surface expression of GRP78; also recorded: induced GRP78 cell surface translocation
CCc1cc2c(cc1N1CCC(N3CCOCC3)CC1)C(C)(C)c1[nH]c3cc(C#N)ccc3c1C2=O [alectinib],activation of SRC,[6],cause the activation of SRC
COc1cc(Nc2ncc3c(n2)-c2ccc(Cl)cc2C(c2c(F)cccc2OC)=NC3)ccc1C(=O)O [alisertib],GRP78 cell surface translocation,lung cancer cells [5],induce cell surface expression of GRP78; also recorded: induced GRP78 cell surface translocation
COc1cccc2c1C(=O)c1c(O)c3c(c(O)c1C2=O)C[C@@](O)(C(=O)CO)C[C@@H]3O[C@H]1C[C@H](N)[C@H](O)[C@H](C)O1 [doxorubicin],Par-4 secretion from normal cells,normal cells,"comparable to, or higher than"
COc1cc([C@@H]2c3cc4c(cc3[C@@H](O[C@@H]3O[C@@H]5CO[C@@H](C)O[C@H]5[C@H](O)[C@H]3O)[C@H]3COC(=O)[C@H]23)OCO4)cc(OC)c1O [etoposide],Par-4 secretion from normal cells,normal cells,"comparable to, or higher than"
CCc1c2c(nc3ccc(OC(=O)N4CCC(N5CCCCC5)CC4)cc13)-c1cc3c(c(=O)n1C2)COC(=O)[C@]3(O)CC [irinotecan],Par-4 secretion from normal cells,normal cells,"comparable to, or higher than"
